Assay: Microsomal liver assay (rate of oxidative metabolism)
Assay type: in vitro ADME
Details: human liver microsomes; 3 μM test compound, 1 mg/mL microsomal proteins, 37° C.
Protocol: Mouse and rat liver microsomes were purchased from XenoTech LLC (Kansas City, Kans.), and human liver microsomes were obtained from BD Gentest (Woburn, Mass.).
The oxidative metabolism in liver microsomes of various species was studied under the following condition: 3 μM test compound (organic solvent content <0.1%), 1 mg/mL microsomal proteins, 1 mM β-nicotinamide adenine dinucleotide phosphase (β-NADPH), 100 mM phosphate buffer (pH 7.4), and 6.7 MM magnesium chloride. The reaction (n=3) was initiated by the addition of NADPH followed by incubation at 37° C. for 20 min. Aliquots of samples (0.1 mL) were taken at 0, 5, and 20 min, and the reaction was quenched by the addition of three volumes of acetonitrile. Samples were stored at −20° C. until analysis.
The rate of oxidation in liver microsomes was determined from the following equation: rate (nmol/min/mg protein)=k*C0/Cprotein, where k (1/min) is the turnover rate constant estimated from non-linear regression of the percent compound remaining (y)-time (t) curve using the equation y=y0*exp(−k*t); C0 is initial drug concentration (μM), and Cprotein is microsomal protein concentration (mg/mL).
Rates of metabolism are “binned” (classified) as follows: […]

A rate of metabolism of 0.2 nmol/min/mg was found for `CN1C(=O)N(c2cc(Cl)cc(Cl)c2)C(=O)[C@]12CN(c1ccccn1)C[C@H]2c1ccc(C#N)cc1` (relative stereo) [4-[(5S*,9R *)-3-(3,5-dichlorophenyl)-1-methyl-2,4-dioxo-7-pyridin-2-yl-1,3,7-triazaspiro[4.4]non-9-yl]-benzonitrile] in this work.

— patent US7186727B2, “Pyridyl-substituted spiro-hydantoin compounds and use thereof” (Bristol-Myers Squibb Company, priority 2004, dated 2007)
